Assay results taken from patent US20110028566A1, “COMPOSITIONS AND PRODUCTS CONTAINING CYCLOALIPHATIC DIOL ANTIMICROBIAL AGENTS AND METHODS OF USING THE COMPOSITIONS AND PRODUCTS” (EASTMAN CHEMICAL COMPANY, priority 2009, published 2011).

Tests used:
Experiment in all cases: Microbial challenge testing in BPW
Format in all cases: cell-based
Aspergillus niger = tested on: Aspergillus niger
Procedure: (§1) The microorganisms used in challenge tests are given in Table 3, designated as either ATCC (American Type Culture Collection) or wild type. These wild type organisms were problematic organisms previously isolated from chemical products. In the description for each organism, the bacteria are indicated as either GN (Gram negative) or GP (Gram positive).
(§2) All of the microorganisms were grown in Tryptose Soy Broth (TSB), DIFCO™ available from Becton, Dickinson and Company, containing 1% dextrose. Aspergillus niger and Candida albicans were incubated at 22° C.±2° C. for at least 96 hours. All bacteria were incubated at 35° C.±2° C. in a humidified incubator for at least 96 hours.
(§3) Aspergillus niger and Candida albicans were also grown on Sabouraud dextrose agar (SDA) at 22° C.±2° C. for 7 to 14 days or until full sporulation was achieved.
(§4) The following procedure was followed to determine the amount of each challenge material (inoculum broth) required to produce a 10^8 cfu/mL challenge, which is equivalent to a final test-sample microbial concentration of 10^5 to 10^6 cfu (colony-forming units)/mL.
(§5) Using a sterile serological pipette, 1 mL of the growth from each TSB culture was transferred into tubes containing 9 mL phosphate buffer (pH 7.2) and mixed thoroughly. This process was repeated to make serial 1:10 dilutions. Then 0.1 mL of each sample and dilution was inoculated onto agar plates to produce the equivalent of a further 1:10 dilution. C. albicans and A. niger were inoculated onto SDA and bacteria were inoculated onto Plate Count Agar (PCA), DIFCO™ available from Becton, Dickinson and Company. The 0.1 mL aliquots were evenly distributed on the plates using the spread-plate technique. The spread-plate technique is performed by spreading the aliquot over the entire plate surface using a sterile spreading rod while rotating the plate with a rotary auto-plater. After the inoculum was absorbed completely, each plate was inverted and incubated (fungi at 22° C.±2° C. and bacteria at 35° C.±2° C.).
(§6) After incubation for at least 48 hours, colonies that had developed on the agar plates were counted and recorded with the corresponding dilution. If counting had to be delayed temporarily, plates were refrigerated, preferably no more than 24 hours, until they could be counted. The number of cfu/mL was determined by multiplying the count by the dilution factor for that particular plate.
(§7) Turbidity in Nepholemetric Turbidity Units (NTU) was measured for each serial dilution using the HF-Micro 100 Model Turbidimeter. For each microorganism, the plate counts were compared to the turbidity readings.
Aspergillus niger cultures were harvested and spores dislodged from the SDA on which they were grown by rubbing the growth gently with a sterile inoculating loop. The spores were then mixed into the broth culture that had been incubated with a sterile magnetic stir bar to reduce pellicle formation. The spore-culture mixture was filtered repeatedly through sterile, non-absorbent cotton and harvested repeatedly, adjusting vegetative cells and spores to a level of 1.0×10^8. A hemocytometer was used to verify the final challenge concentration.
(§8) Control substrates (“broth alone”) were prepared for each microorganism separately in triplicate by adding 13.5 mL of BPW (pH 7.0) containing 1% (w/v) dextrose to each 20-mL glass tube; then adding 1.5 mL challenge material to produce a final concentration at time zero of 10^5 to 10^6 cfu/mL and a total volume of 15 mL.
(§9) Test sample substrates were prepared containing each test material (1,4-CHDM, etc) or combination of test materials at the concentrations shown in Tables 5 and 6.

Candida albicans = tested on: Candida albicans
Procedure: as §1, §2, §3, §4, §5, §6, §7
On the day of challenge, the Candida albicans inoculum broth was poured through non-absorbent sterile gauze and centrifuged. The […] was then diluted with phosphate buffer (pH 7.2) until the desired turbidity was reached. Using a hemocytometer, a determination was made whether the challenge contained the desired concentration. Dilutions were made through 1.0×10^8 and three SDA spread plates were inoculated with 0.1 mL of each dilution.
as §8, §9

Aeromonas sp. = tested on: Aeromonas sp.
Procedure: as §1, §2, §4, §5, §6, §7, §8
(§10) Test sample substrates were prepared containing each test material (1,4-CHDM, etc) or combination of test materials at the concentrations shown in Tables 5 and 6. Sample substrates were prepared in triplicate, except those substrates containing PE or CG which were prepared in duplicate. Substrates were prepared by adding BPW containing 1% (w/v) dextrose to each 20-mL glass tube, then adding the test material in the amount appropriate to achieve the desired weight/volume percent (g/100 mL) and to obtain a total volume of BPW with dextrose and test material of 13.5 mL. Then 1.5 mL challenge material was added to produce a final concentration at time zero of 10^5 to 10^6 cfu/mL of the respective organism and a total test sample substrate volume of 15 mL.
(§11) After mixing, all challenged substrates were incubated at 35° C.±2° C. for 14 days and then at ambient room temperature.

Bacillus subtilis = tested on: Bacillus subtilis
Procedure: as §1, §2, §4, §5, §6, §7, §8, §10, §11

Burkholderia cepacia = tested on: Burkholderia cepacia
Procedure: as §1, §2, §4, §5, §6, §7, §8, §10, §11

Escherichia coli = tested on: Escherichia coli
Procedure: as §1, §2, §4, §5, §6, §7, §8, §10, §11

## OCC1CCCC(CO)C1 (stereo not shown) [1,3-CHDM]
Aspergillus niger; 0.5%, 3 days incubation
  Grade code A. niger: 5
Aspergillus niger; 0.5%, 13 days incubation
  Grade code A. niger: 5
Aspergillus niger; 0.5%, 30 days incubation
  Grade code A. niger: 5
Aspergillus niger; 1.25%, 3 days incubation
  Grade code A. niger: 5
Aspergillus niger; 1.25%, 13 days incubation
  Grade code A. niger: 4
Aspergillus niger; 1.25%, 30 days incubation
  Grade code A. niger: 4
Aspergillus niger; 2.5%, 3 days incubation
  Grade code A. niger: 4
Aspergillus niger; 2.5%, 13 days incubation
  Grade code A. niger: 4
Aspergillus niger; 2.5%, 30 days incubation
  Grade code A. niger: 4
Candida albicans; 0.5%, 3 days incubation
  Grade code C. albicans: 4 (1001 to 10,000 colonies (thus 10,000 cfu/mL to 100,000 cfu/mL))
Candida albicans; 0.5%, 14 days incubation
  Grade code C. albicans: 4 (1001 to 10,000 colonies (thus 10,000 cfu/mL to 100,000 cfu/mL))
Candida albicans; 0.5%, 30 days incubation
  Grade code C. albicans: 4 (1001 to 10,000 colonies (thus 10,000 cfu/mL to 100,000 cfu/mL))
Candida albicans; 1.25%, 3 days incubation
  Grade code C. albicans: 4 (1001 to 10,000 colonies (thus 10,000 cfu/mL to 100,000 cfu/mL))
Candida albicans; 1.25%, 14 days incubation
  Grade code C. albicans: 4 (1001 to 10,000 colonies (thus 10,000 cfu/mL to 100,000 cfu/mL))
Candida albicans; 1.25%, 30 days incubation
  Grade code C. albicans: 4 (1001 to 10,000 colonies (thus 10,000 cfu/mL to 100,000 cfu/mL))
Candida albicans; 2.5%, 3 days incubation
  Grade code C. albicans: 4 (1001 to 10,000 colonies (thus 10,000 cfu/mL to 100,000 cfu/mL))
Candida albicans; 2.5%, 14 days incubation
  Grade code C. albicans: 4 (1001 to 10,000 colonies (thus 10,000 cfu/mL to 100,000 cfu/mL))
Candida albicans; 2.5%, 30 days incubation
  Grade code C. albicans: 4 (1001 to 10,000 colonies (thus 10,000 cfu/mL to 100,000 cfu/mL))
Aeromonas sp.; 0.5%, 3 days incubation
  Grade code Aeromonas sp: 5 (More than 10,000 colonies estimated (thus >100,000 cfu/mL))
Aeromonas sp.; 0.5%, 14 days incubation
  Grade code Aeromonas sp: 4 (1001 to 10,000 colonies (thus 10,000 cfu/mL to 100,000 cfu/mL))
Aeromonas sp.; 0.5%, 30 days incubation
  Grade code Aeromonas sp: 4 (1001 to 10,000 colonies (thus 10,000 cfu/mL to 100,000 cfu/mL))
Aeromonas sp.; 1.25%, 3 days incubation
  Grade code Aeromonas sp: 4 (1001 to 10,000 colonies (thus 10,000 cfu/mL to 100,000 cfu/mL))
Aeromonas sp.; 1.25%, 14 days incubation
  Grade code Aeromonas sp: 4 (1001 to 10,000 colonies (thus 10,000 cfu/mL to 100,000 cfu/mL))
Aeromonas sp.; 1.25%, 30 days incubation
  Grade code Aeromonas sp: 4 (1001 to 10,000 colonies (thus 10,000 cfu/mL to 100,000 cfu/mL))
Bacillus subtilis; 0.5%, 3 days incubation
  Grade code B. subtilis: 4 (1001 to 10,000 colonies (thus 10,000 cfu/mL to 100,000 cfu/mL))
Bacillus subtilis; 0.5%, 14 days incubation
  Grade code B. subtilis: 4 (1001 to 10,000 colonies (thus 10,000 cfu/mL to 100,000 cfu/mL))
Bacillus subtilis; 0.5%, 30 days incubation
  Grade code B. subtilis: 4 (1001 to 10,000 colonies (thus 10,000 cfu/mL to 100,000 cfu/mL))
Bacillus subtilis; 1.25%, 3 days incubation
  Grade code B. subtilis: 4 (1001 to 10,000 colonies (thus 10,000 cfu/mL to 100,000 cfu/mL))
Bacillus subtilis; 1.25%, 14 days incubation
  Grade code B. subtilis: 4 (1001 to 10,000 colonies (thus 10,000 cfu/mL to 100,000 cfu/mL))
Bacillus subtilis; 1.25%, 30 days incubation
  Grade code B. subtilis: 4 (1001 to 10,000 colonies (thus 10,000 cfu/mL to 100,000 cfu/mL))
Bacillus subtilis; 2.5%, 3 days incubation
  Grade code B. subtilis: 4 (1001 to 10,000 colonies (thus 10,000 cfu/mL to 100,000 cfu/mL))
Bacillus subtilis; 2.5%, 14 days incubation
  Grade code B. subtilis: 4 (1001 to 10,000 colonies (thus 10,000 cfu/mL to 100,000 cfu/mL))
Bacillus subtilis; 2.5%, 30 days incubation
  Grade code B. subtilis: 4 (1001 to 10,000 colonies (thus 10,000 cfu/mL to 100,000 cfu/mL))
Burkholderia cepacia; 0.5%, 3 days incubation
  Grade code B. cepacia: 5 (More than 10,000 colonies estimated (thus >100,000 cfu/mL))
Burkholderia cepacia; 0.5%, 14 days incubation
  Grade code B. cepacia: 5 (More than 10,000 colonies estimated (thus >100,000 cfu/mL))
Burkholderia cepacia; 0.5%, 30 days incubation
  Grade code B. cepacia: 5 (More than 10,000 colonies estimated (thus >100,000 cfu/mL))
Burkholderia cepacia; 1.25%, 3 days incubation
  Grade code B. cepacia: 4.7
Burkholderia cepacia; 1.25%, 14 days incubation
  Grade code B. cepacia: 4.7
Burkholderia cepacia; 1.25%, 30 days incubation
  Grade code B. cepacia: 4.7
Burkholderia cepacia; 2.5%, 3 days incubation
  Grade code B. cepacia: 4 (1001 to 10,000 colonies (thus 10,000 cfu/mL to 100,000 cfu/mL))
Burkholderia cepacia; 2.5%, 14 days incubation
  Grade code B. cepacia: 4 (1001 to 10,000 colonies (thus 10,000 cfu/mL to 100,000 cfu/mL))
Burkholderia cepacia; 2.5%, 30 days incubation
  Grade code B. cepacia: 4 (1001 to 10,000 colonies (thus 10,000 cfu/mL to 100,000 cfu/mL))
Escherichia coli; 0.5%, 3 days incubation
  Grade code E. coli: 5 (More than 10,000 colonies estimated (thus >100,000 cfu/mL))
Escherichia coli; 0.5%, 14 days incubation
  Grade code E. coli: 5 (More than 10,000 colonies estimated (thus >100,000 cfu/mL))
Escherichia coli; 0.5%, 30 days incubation
  Grade code E. coli: 5 (More than 10,000 colonies estimated (thus >100,000 cfu/mL))
Escherichia coli; 1.25%, 3 days incubation
  Grade code E. coli: 5 (More than 10,000 colonies estimated (thus >100,000 cfu/mL))
